Patent US5556744A, “Methods and compositions for diagnosing and treating certain HIV infected patients” (The Trustees of the University of Pennsylvania, priority 1994, dated 1996)

How the values were obtained:
[1] = test system: maternal sera (antibodies); assay: ELISA peptide-binding of maternal sera (Example 6); set-up: species or system human
Procedure, shortened: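 HIV-1 envelope peptides averaging 16 amino acids, covering external and transmembrane glycoprotein, were probed by ELISA. Third-trimester maternal sera, classed as transmitter or non-transmitter by child diagnosis, were each run on at least 40 peptides. Values give percent of sera binding a peptide.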

[2] = test system: maternal HIV+ sera (antibodies); assay: RIA / ELISA binding of maternal HIV+ sera to gp120 and gp41 peptides (Example 3); set-up: species or system human; details: for Number of maternal sera binding to peptide: 20 maternal sera; for Binding of maternal sera to peptide (in words): Example 3; for Number of binding maternal sera from the non-transmission group: non-transmission group (13 sera); for Number of binding maternal sera from the transmission group: vertical transmission group (7 sera)
Procedure, shortened: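 Maternal sera, diluted 1:50 and 1:500, were bound overnight at 4°C to peptides immobilized at 10 μg/ml (pH 9.6 carbonate) and blocked with 1% BSA. Read-out was ¹²⁵I-labelled anti-human IgG counts or HRP-TMB OD450. Signal with peptide minus without was expressed relative to seronegative serum.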

[3] = test system: HIV-1; details: cited from earlier work
[4] = Serum No. 1, Non-Transmission Group
[5] = Serum No. 2, Non-Transmission Group
[6] = Serum No. 3, Non-Transmission Group
[7] = Serum No. 4, Transmission Group
[8] = Serum No. 5, Transmission Group
[9] = Serum No. 6, Non-Transmission Group
[10] = Serum No. 7, Non-Transmission Group
[11] = Serum No. 8, Non-Transmission Group
[12] = Serum No. 9, Non-Transmission Group
[13] = Serum No. 10, Transmission Group
[14] = Serum No. 11, Non-Transmission Group
[15] = Serum No. 12, Non-Transmission Group
[16] = Serum No. 13, Transmission Group
[17] = Serum No. 14, Transmission Group
[18] = Serum No. 15, Transmission Group
[19] = Serum No. 16, Non-Transmission Group
[20] = Serum No. 17, Non-Transmission Group
[21] = Serum No. 18, Non-Transmission Group
[22] = Serum No. 19, Transmission Group
[23] = Serum No. 20, Non-Transmission Group

| Sequence | Number of maternal sera binding to peptide [2] | Binding of maternal sera to peptide (in words) [2] | Binding of maternal HIV+ serum to peptide (sera/NHS ratio) [2, 4] | Binding of maternal HIV+ serum to peptide (sera/NHS ratio) [2, 5] | Binding of maternal HIV+ serum to peptide (sera/NHS ratio) [2, 6] | Binding of maternal HIV+ serum to peptide (sera/NHS ratio) [2, 7] | Binding of maternal HIV+ serum to peptide (sera/NHS ratio) [2, 8] | Binding of maternal HIV+ serum to peptide (sera/NHS ratio) [2, 9] | Binding of maternal HIV+ serum to peptide (sera/NHS ratio) [2, 10] | Binding of maternal HIV+ serum to peptide (sera/NHS ratio) [2, 11] | Binding of maternal HIV+ serum to peptide (sera/NHS ratio) [2, 12] | Binding of maternal HIV+ serum to peptide (sera/NHS ratio) [2, 13] | Binding of maternal HIV+ serum to peptide (sera/NHS ratio) [2, 14] | Binding of maternal HIV+ serum to peptide (sera/NHS ratio) [2, 15] | Binding of maternal HIV+ serum to peptide (sera/NHS ratio) [2, 16] | Binding of maternal HIV+ serum to peptide (sera/NHS ratio) [2, 17] | Binding of maternal HIV+ serum to peptide (sera/NHS ratio) [2, 18] | Binding of maternal HIV+ serum to peptide (sera/NHS ratio) [2, 19] | Binding of maternal HIV+ serum to peptide (sera/NHS ratio) [2, 20] | Binding of maternal HIV+ serum to peptide (sera/NHS ratio) [2, 21] | further results |
| --- | --- | --- | --- | --- | --- | --- | --- | --- | --- | --- | --- | --- | --- | --- | --- | --- | --- | --- | --- | --- | --- |
| CFRPGGGDMRDNWREL [Peptide 466] | three | very strong binding | - (specific OD450 or cpm of sera sample binding to peptide divided by the specific OD450 or cpm of NHS sample binding to peptide, which value is less than 2) | - (specific OD450 or cpm of sera sample binding to peptide divided by the specific OD450 or cpm of NHS sample binding to peptide, which value is less than 2) | - (specific OD450 or cpm of sera sample binding to peptide divided by the specific OD450 or cpm of NHS sample binding to peptide, which value is less than 2) | - (specific OD450 or cpm of sera sample binding to peptide divided by the specific OD450 or cpm of NHS sample binding to peptide, which value is less than 2) | - (specific OD450 or cpm of sera sample binding to peptide divided by the specific OD450 or cpm of NHS sample binding to peptide, which value is less than 2) | + (which value is between 2 to 3) | - (specific OD450 or cpm of sera sample binding to peptide divided by the specific OD450 or cpm of NHS sample binding to peptide, which value is less than 2) | - (specific OD450 or cpm of sera sample binding to peptide divided by the specific OD450 or cpm of NHS sample binding to peptide, which value is less than 2) | ++ (which value is greater than 3) | - (specific OD450 or cpm of sera sample binding to peptide divided by the specific OD450 or cpm of NHS sample binding to peptide, which value is less than 2) | - (specific OD450 or cpm of sera sample binding to peptide divided by the specific OD450 or cpm of NHS sample binding to peptide, which value is less than 2) | - (specific OD450 or cpm of sera sample binding to peptide divided by the specific OD450 or cpm of NHS sample binding to peptide, which value is less than 2) | - (specific OD450 or cpm of sera sample binding to peptide divided by the specific OD450 or cpm of NHS sample binding to peptide, which value is less than 2) | - (specific OD450 or cpm of sera sample binding to peptide divided by the specific OD450 or cpm of NHS sample binding to peptide, which value is less than 2) | - (specific OD450 or cpm of sera sample binding to peptide divided by the specific OD450 or cpm of NHS sample binding to peptide, which value is less than 2) | - (specific OD450 or cpm of sera sample binding to peptide divided by the specific OD450 or cpm of NHS sample binding to peptide, which value is less than 2) | - (specific OD450 or cpm of sera sample binding to peptide divided by the specific OD450 or cpm of NHS sample binding to peptide, which value is less than 2) | + (which value is between 2 to 3) | Number of Non-Transmitters which bound to peptide ([1]; Non-Transmitters, N = 12): 0; Percent of Non-Transmitters which bound to peptide ([1]; Non-Transmitters, N = 12): 0%; Number of Transmitters which bound to peptide ([1]; Transmitters, N = 4): 0; Percent of Transmitters which bound to peptide ([1]; Transmitters, N = 4): 0%; Binding of maternal HIV+ serum to peptide (sera/NHS ratio) [2, 22]: - (specific OD450 or cpm of sera sample binding to peptide divided by the specific OD450 or cpm of NHS sample binding to peptide, which value is less than 2); Binding of maternal HIV+ serum to peptide (sera/NHS ratio) [2, 23]: - (specific OD450 or cpm of sera sample binding to peptide divided by the specific OD450 or cpm of NHS sample binding to peptide, which value is less than 2); Percent of the maternal serum samples that bound to the peptide ([2]; all 20 samples): 15%; Number of binding maternal sera from the non-transmission group [2]: three; Number of binding maternal sera from the transmission group [2]: Zero; Neutralizing activity of antisera generated to the peptide ([3]; antisera (animals)): exhibit neutralizing activity; Antisyncytial and neutralizing activities elicited by the peptide ([3]; in words, Example 5): can elicit both antisyncytial and neutralizing activities |
| TLPCASDAKAYDTEV [Peptide 93] | six | Several maternal serum samples had reactivity | ++ (which value is greater than 3) | - (specific OD450 or cpm of sera sample binding to peptide divided by the specific OD450 or cpm of NHS sample binding to peptide, which value is less than 2) | - (specific OD450 or cpm of sera sample binding to peptide divided by the specific OD450 or cpm of NHS sample binding to peptide, which value is less than 2) | ++ (which value is greater than 3) | - (specific OD450 or cpm of sera sample binding to peptide divided by the specific OD450 or cpm of NHS sample binding to peptide, which value is less than 2) | + (which value is between 2 to 3) | ++ (which value is greater than 3) | + (which value is between 2 to 3) | - (specific OD450 or cpm of sera sample binding to peptide divided by the specific OD450 or cpm of NHS sample binding to peptide, which value is less than 2) | - (specific OD450 or cpm of sera sample binding to peptide divided by the specific OD450 or cpm of NHS sample binding to peptide, which value is less than 2) | - (specific OD450 or cpm of sera sample binding to peptide divided by the specific OD450 or cpm of NHS sample binding to peptide, which value is less than 2) | - (specific OD450 or cpm of sera sample binding to peptide divided by the specific OD450 or cpm of NHS sample binding to peptide, which value is less than 2) | - (specific OD450 or cpm of sera sample binding to peptide divided by the specific OD450 or cpm of NHS sample binding to peptide, which value is less than 2) | - (specific OD450 or cpm of sera sample binding to peptide divided by the specific OD450 or cpm of NHS sample binding to peptide, which value is less than 2) | - (specific OD450 or cpm of sera sample binding to peptide divided by the specific OD450 or cpm of NHS sample binding to peptide, which value is less than 2) | + (which value is between 2 to 3) | - (specific OD450 or cpm of sera sample binding to peptide divided by the specific OD450 or cpm of NHS sample binding to peptide, which value is less than 2) | - (specific OD450 or cpm of sera sample binding to peptide divided by the specific OD450 or cpm of NHS sample binding to peptide, which value is less than 2) | Binding of maternal HIV+ serum to peptide (sera/NHS ratio) [2, 22]: - (specific OD450 or cpm of sera sample binding to peptide divided by the specific OD450 or cpm of NHS sample binding to peptide, which value is less than 2); Binding of maternal HIV+ serum to peptide (sera/NHS ratio) [2, 23]: - (specific OD450 or cpm of sera sample binding to peptide divided by the specific OD450 or cpm of NHS sample binding to peptide, which value is less than 2); Number of binding maternal sera from the non-transmission group [2]: 5; Percent of binding maternal sera from the non-transmission group ([2]; of the sera which bound): 83%; Percent of binding maternal sera from the transmission group ([2]; of the sera which bound): 17%; Number of binding maternal sera from the transmission group [2]: 1 |
